Assay results taken from PubChem BioAssay AID330 (DTP/NCI, 2004).
Values joined by “and” are separate entries in the source; they are usually repeats but may differ in a detail not shown here. Identical values can stand only once. Toxic doses and inconclusive results are not listed.

Test system: P388 leukemia ip, CD2F1 mice, survival T/C
Assay: NCI In Vivo Anticancer Drug Screen. Data for tumor model P388 Leukemia (intraperitoneal) in CD2F1 (CDF1) mice
Conditions: endpoint: median survival time, higher = longer survival
How it was run: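 Mice carrying the transplanted tumor received test compound or vehicle. Survival was recorded in each group, and the value is the treated-group measurement divided by that of the vehicle-treated control group.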

[1] = dose: 12.5 mg/kg/injection, schedule: Q01DX009 (ip), vehicle: distilled water + Tween-80
[2] = dose: 25.0 mg/kg/injection, schedule: Q01DX009 (ip), vehicle: distilled water + Tween-80
[3] = dose: 50.0 mg/kg/injection, schedule: Q01DX009 (ip), vehicle: distilled water + Tween-80
[4] = dose: 100.0 mg/kg/injection, schedule: Q01DX009 (ip), vehicle: distilled water + Tween-80
[5] = dose: 25.0 mg/kg/injection, schedule: Q01DX009 (ip), vehicle: saline with Tween-80
[6] = dose: 50.0 mg/kg/injection, schedule: Q01DX009 (ip), vehicle: saline with Tween-80
[7] = dose: 100.0 mg/kg/injection, schedule: Q01DX009 (ip), vehicle: saline with Tween-80
[8] = dose: 100.0 mg/kg/injection, schedule: Q04DX003 (ip), vehicle: saline
[9] = dose: 200.0 mg/kg/injection, schedule: Q04DX003 (ip), vehicle: saline
[10] = dose: 6.25 mg/kg/injection, schedule: Q01DX009 (ip), vehicle: saline with Tween-80
[11] = dose: 200.0 mg/kg/injection, schedule: Q01DX009 (ip), vehicle: saline with Tween-80
[12] = dose: 50.0 mg/kg/injection, schedule: Q01DX005 (ip), vehicle: saline with Tween-80
[13] = dose: 100.0 mg/kg/injection, schedule: Q01DX005 (ip), vehicle: saline with Tween-80
[14] = dose: 200.0 mg/kg/injection, schedule: Q01DX005 (ip), vehicle: saline with Tween-80

## [N-]=[N+]=CC(=O)CCC(NC(=O)OCc1ccccc1)C(=O)OCc1ccccc1 (stereo not given)
dose: 0.78 mg/kg/injection, schedule: Q01DX005 (ip), vehicle: Klucel (hydroxypropylcellulose) (HPC)
  T/C: 102 % of control
dose: 1.56 mg/kg/injection, schedule: Q01DX005 (ip), vehicle: Klucel (hydroxypropylcellulose) (HPC)
  T/C: 110 % of control
dose: 3.13 mg/kg/injection, schedule: Q01DX005 (ip), vehicle: Klucel (hydroxypropylcellulose) (HPC)
  T/C: 101 % of control
dose: 6.25 mg/kg/injection, schedule: Q01DX005 (ip), vehicle: Klucel (hydroxypropylcellulose) (HPC)
  T/C: 104 % of control
dose: 12.5 mg/kg/injection, schedule: Q01DX005 (ip), vehicle: Klucel (hydroxypropylcellulose) (HPC)
  T/C: 99 % of control and 101 % of control and 113 % of control
dose: 25.0 mg/kg/injection, schedule: Q01DX005 (ip), vehicle: Klucel (hydroxypropylcellulose) (HPC)
  T/C: 110 % of control and 120 % of control
dose: 36.0 mg/kg/injection, schedule: Q01DX005 (ip), vehicle: Klucel (hydroxypropylcellulose) (HPC)
  T/C: 107 % of control
dose: 60.0 mg/kg/injection, schedule: Q01DX005 (ip), vehicle: Klucel (hydroxypropylcellulose) (HPC)
  T/C: 120 % of control
dose: 278.0 mg/kg/injection, schedule: Q01DX005 (ip), vehicle: Klucel (hydroxypropylcellulose) (HPC)
  T/C: 152 % of control

## C=CC(C)(CCC=C(C)C)N=C=O (stereo not given)
[1]
  T/C: 100 % of control
[2]
  T/C: 91 % of control
[3]
  T/C: 105 % of control
[4]
  T/C: 114 % of control
dose: 200.0 mg/kg/injection, schedule: Q01DX009 (ip), vehicle: distilled water + Tween-80
  T/C: 108 % of control

## CCCCCCCCCCCCCCCC(O)CC(O)CC(O)CC1CC=CC(=O)O1 (stereo not given)
dose: 4.0 mg/kg/injection, schedule: Q01DX009 (ip), vehicle: Klucel (hydroxypropylcellulose) (HPC)
  T/C: 100 % of control
dose: 8.0 mg/kg/injection, schedule: Q01DX009 (ip), vehicle: Klucel (hydroxypropylcellulose) (HPC)
  T/C: 100 % of control
dose: 16.0 mg/kg/injection, schedule: Q01DX009 (ip), vehicle: Klucel (hydroxypropylcellulose) (HPC)
  T/C: 104 % of control
dose: 32.0 mg/kg/injection, schedule: Q01DX009 (ip), vehicle: Klucel (hydroxypropylcellulose) (HPC)
  T/C: 109 % of control

## CCc1nc(N)nc(N)c1-c1ccc(Cl)c([N+](=O)[O-])c1
dose: 0.78 mg/kg/injection, schedule: Q01DX009 (ip), vehicle: distilled water + Tween-80
  T/C: 105 % of control
dose: 3.13 mg/kg/injection, schedule: Q01DX009 (ip), vehicle: distilled water + Tween-80
  T/C: 120 % of control and 123 % of control
dose: 6.25 mg/kg/injection, schedule: Q01DX009 (ip), vehicle: distilled water + Tween-80
  T/C: 170 % of control
[1]
  T/C: 163 % of control

## CC1(CNC(=O)C(=O)NCC2(C)CO2)CO1 (stereo not given)
dose: 6.25 mg/kg/injection, schedule: Q04DX003 (ip), vehicle: saline with Tween-80
  T/C: 90 % of control
dose: 17.5 mg/kg/injection, schedule: Q04DX003 (ip), vehicle: saline with Tween-80
  T/C: 109 % of control
[5]
  T/C: 150 % of control
dose: 25.0 mg/kg/injection, schedule: Q04DX003 (ip), vehicle: saline with Tween-80
  T/C: 122 % of control
[6]
  T/C: 172 % of control
[7]
  T/C: 186 % of control
dose: 100.0 mg/kg/injection, schedule: Q04DX003 (ip), vehicle: saline with Tween-80
  T/C: 168 % of control
dose: 132.0 mg/kg/injection, schedule: Q04DX003 (ip), vehicle: saline with Tween-80
  T/C: 172 % of control
dose: 200.0 mg/kg/injection, schedule: Q04DX003 (ip), vehicle: saline with Tween-80
  T/C: 163 % of control and 195 % of control
dose: 300.0 mg/kg/injection, schedule: Q04DX003 (ip), vehicle: saline with Tween-80
  T/C: 195 % of control
dose: 400.0 mg/kg/injection, schedule: Q04DX003 (ip), vehicle: saline with Tween-80
  T/C: 109 % of control

## CC(C(=O)O)C(Nc1ncnc2c1ncn2C1OC(CO)C(O)C1O)C(=O)O (stereo not given)
[8]
  T/C: 98 % of control
[9]
  T/C: 100 % of control
dose: 400.0 mg/kg/injection, schedule: Q04DX003 (ip), vehicle: saline
  T/C: 98 % of control

## O=C1C=CC(Nc2cc(Cl)ccc2Cl)C1Nc1cc(Cl)ccc1Cl (stereo not given)
dose: 1.88 mg/kg/injection, schedule: Q01DX005 (ip), vehicle: saline with Tween-80
  T/C: 99 % of control
dose: 3.75 mg/kg/injection, schedule: Q01DX005 (ip), vehicle: saline with Tween-80
  T/C: 97 % of control
dose: 7.5 mg/kg/injection, schedule: Q01DX005 (ip), vehicle: saline with Tween-80
  T/C: 87 % of control and 93 % of control
dose: 240.0 mg/kg/injection, schedule: Q01DX005 (ip), vehicle: saline with Tween-80
  T/C: 86 % of control and 89 % of control

## C=CC1CC[N-]CC1.[Cl][Cu][Cl]
dose: 7.5 mg/kg/injection, schedule: Q01DX005 (ip), vehicle: saline
  T/C: 98 % of control
dose: 15.0 mg/kg/injection, schedule: Q01DX005 (ip), vehicle: saline
  T/C: 100 % of control

## Cc1ncc(C[n+]2cccc(CCO)c2C)c(N)n1
dose: 50.0 mg/kg/injection, schedule: Q04DX003 (ip), vehicle: saline
  T/C: 97 % of control
[8]
  T/C: 103 % of control
[9]
  T/C: 100 % of control

## CC(=O)/C(=N/O)C(C)=NCc1ccccc1
dose: 100.0 mg/kg/injection, schedule: Q01DX009 (ip), vehicle: Klucel (hydroxypropylcellulose) (HPC)
  T/C: 88 % of control

## CCCC(=O)c1ccco1
[10]
  T/C: 88 % of control
dose: 12.5 mg/kg/injection, schedule: Q01DX009 (ip), vehicle: saline with Tween-80
  T/C: 95 % of control
[5]
  T/C: 95 % of control

## COC(=O)Nc1nc2cc(Cl)c(Cl)cc2[nH]1
[5]
  T/C: 103 % of control and 92 % of control
[6]
  T/C: 105 % of control and 123 % of control and 124 % of control
[7]
  T/C: 111 % of control
[11]
  T/C: 114 % of control
dose: 400.0 mg/kg/injection, schedule: Q01DX009 (ip), vehicle: saline with Tween-80
  T/C: 112 % of control
dose: 600.0 mg/kg/injection, schedule: Q01DX009 (ip), vehicle: saline with Tween-80
  T/C: 119 % of control

## COc1ccc(/C=C2\SC(=O)N(C)C2=O)cc1OC
dose: 50.0 mg/kg/injection, schedule: Q01DX005 (ip), vehicle: Klucel (hydroxypropylcellulose) (HPC)
  T/C: 88 % of control
dose: 100.0 mg/kg/injection, schedule: Q01DX005 (ip), vehicle: Klucel (hydroxypropylcellulose) (HPC)
  T/C: 89 % of control

## CC(C)(c1ccccc1)[N+](C)(C)C
dose: 5.0 mg/kg/injection, schedule: Q01DX009 (ip), vehicle: saline with Tween-80
  T/C: 100 % of control
dose: 10.0 mg/kg/injection, schedule: Q01DX009 (ip), vehicle: saline with Tween-80
  T/C: 104 % of control
dose: 10.0 mg/kg/injection, schedule: Q04DX003 (ip), vehicle: saline
  T/C: 90 % of control
dose: 20.0 mg/kg/injection, schedule: Q01DX009 (ip), vehicle: saline with Tween-80
  T/C: 109 % of control
dose: 20.0 mg/kg/injection, schedule: Q04DX003 (ip), vehicle: saline
  T/C: 95 % of control

## CC(=O)c1c(N)n(C)c(=O)n(C)c1=O
dose: 1.56 mg/kg/injection, schedule: Q01DX009 (ip), vehicle: saline with Tween-80
  T/C: 101 % of control
dose: 3.13 mg/kg/injection, schedule: Q01DX009 (ip), vehicle: saline with Tween-80
  T/C: 100 % of control
[10]
  T/C: 100 % of control and 95 % of control

## COC(=O)C1C(=O)CC2C(C(=O)OC)C(=O)CC12 (stereo not given)
[6]
  T/C: 99 % of control
[7]
  T/C: 95 % of control
[11]
  T/C: 98 % of control

## CN(C)CCNC1=CC(=O)c2ccccc2C1=O
[1]
  T/C: 94 % of control
[2]
  T/C: 101 % of control
[3]
  T/C: 100 % of control
[4]
  T/C: 97 % of control

## Cc1c[n+]([O-])n(-c2ccccc2)n1
[12]
  T/C: 101 % of control
[13]
  T/C: 97 % of control
[14]
  T/C: 103 % of control

## COC1=CC2(C=CC1=O)CCC(=O)O2 (stereo not given)
dose: 12.5 mg/kg/injection, schedule: Q01DX005 (ip), vehicle: saline with Tween-80
  T/C: 119 % of control
dose: 25.0 mg/kg/injection, schedule: Q01DX005 (ip), vehicle: saline with Tween-80
  T/C: 111 % of control
[12]
  T/C: 115 % of control and 113 % of control
[13]
  T/C: 108 % of control

## Cc1ccc(C[N+](C)(C)CCCCCOc2c(Br)cc(Br)cc2Br)o1
dose: 3.13 mg/kg/injection, schedule: Q04DX003 (ip), vehicle: Klucel (hydroxypropylcellulose) (HPC)
  T/C: 101 % of control
dose: 6.25 mg/kg/injection, schedule: Q04DX003 (ip), vehicle: Klucel (hydroxypropylcellulose) (HPC)
  T/C: 94 % of control
dose: 12.5 mg/kg/injection, schedule: Q04DX003 (ip), vehicle: Klucel (hydroxypropylcellulose) (HPC)
  T/C: 98 % of control and 106 % of control

## O=C(NN1C(=O)CSC1c1ccccc1F)c1ccncc1 (stereo not given)
[12]
  T/C: 93 % of control
[13]
  T/C: 108 % of control
[14]
  T/C: 97 % of control
